Measurements from the NIST ThermoML archive (doi:10.1021/je049671t).

Test: xn = mol fraction of the nth substance listed
Conditions: Liquid, Vibrating tube method

CCCC [butane] + CCC
Conditions	mass density [kg/m3]
239.04 K, 463.7 kPa, x2 = 0.25	622.82
239.04 K, 943.7 kPa, x2 = 0.25	623.31
239.04 K, 1507.7 kPa, x2 = 0.25	623.9
239.04 K, 1962.4 kPa, x2 = 0.25	624.35
239.04 K, 2486.4 kPa, x2 = 0.25	624.89
239.04 K, 3058.3 kPa, x2 = 0.25	625.46
239.04 K, 3473.7 kPa, x2 = 0.25	625.88
239.04 K, 3994 kPa, x2 = 0.25	626.39
239.04 K, 4514.6 kPa, x2 = 0.25	626.9
239.04 K, 4950 kPa, x2 = 0.25	627.33
239.04 K, 5524.3 kPa, x2 = 0.25	627.9
239.04 K, 6029.4 kPa, x2 = 0.25	628.39
239.04 K, 6518 kPa, x2 = 0.25	628.86
239.04 K, 6930.6 kPa, x2 = 0.25	629.26
240 K, 478.5 kPa, x2 = 0.5	606.78
240 K, 514.9 kPa, x2 = 0.75	589.83
240 K, 996.7 kPa, x2 = 0.5	607.38
240 K, 1006.3 kPa, x2 = 0.75	590.44
240 K, 1479 kPa, x2 = 0.5	607.88
240 K, 1505.4 kPa, x2 = 0.75	591.03
240 K, 1962.4 kPa, x2 = 0.5	608.42
240 K, 2024.2 kPa, x2 = 0.75	591.63
240 K, 2491.6 kPa, x2 = 0.5	609
240 K, 2519.5 kPa, x2 = 0.75	592.21
240 K, 2956 kPa, x2 = 0.5	609.51
240 K, 3022.7 kPa, x2 = 0.75	592.8
240 K, 3501.4 kPa, x2 = 0.5	610.09
240 K, 3519.4 kPa, x2 = 0.75	593.39
240 K, 3952.5 kPa, x2 = 0.5	610.58
240 K, 4031.2 kPa, x2 = 0.75	593.97
240 K, 4493.1 kPa, x2 = 0.5	611.14
240 K, 4526.8 kPa, x2 = 0.75	594.51
240 K, 4946.9 kPa, x2 = 0.75	594.99
240 K, 4972.1 kPa, x2 = 0.5	611.66
240 K, 5472.1 kPa, x2 = 0.5	612.19
240 K, 5521.6 kPa, x2 = 0.75	595.64
240 K, 6000.1 kPa, x2 = 0.5	612.74
240 K, 6044.8 kPa, x2 = 0.75	596.2
240 K, 6502.7 kPa, x2 = 0.5	613.25
240 K, 6539.6 kPa, x2 = 0.75	596.77
240 K, 6973.1 kPa, x2 = 0.5	613.74
240 K, 7045.6 kPa, x2 = 0.75	597.3
260 K, 489.6 kPa, x2 = 0.75	566.44
260 K, 495.8 kPa, x2 = 0.5	585.02
260 K, 524.1 kPa, x2 = 0.25	600.69
260 K, 996.9 kPa, x2 = 0.75	567.21
260 K, 1001.1 kPa, x2 = 0.5	585.74
260 K, 1004.9 kPa, x2 = 0.25	601.3
260 K, 1482.5 kPa, x2 = 0.25	601.91
260 K, 1504.2 kPa, x2 = 0.75	567.97
260 K, 1506.4 kPa, x2 = 0.5	586.42
260 K, 1989.9 kPa, x2 = 0.25	602.54
260 K, 2003.6 kPa, x2 = 0.75	568.71
260 K, 2004.6 kPa, x2 = 0.5	587.1
260 K, 2508.4 kPa, x2 = 0.75	569.45
260 K, 2517.2 kPa, x2 = 0.5	587.78
260 K, 2521.3 kPa, x2 = 0.25	603.2
260 K, 3004 kPa, x2 = 0.25	603.79
260 K, 3014.9 kPa, x2 = 0.5	588.45
260 K, 3015.6 kPa, x2 = 0.75	570.19
260 K, 3449.6 kPa, x2 = 0.25	604.34
260 K, 3495.5 kPa, x2 = 0.75	570.88
260 K, 3506 kPa, x2 = 0.5	589.1
260 K, 4004.5 kPa, x2 = 0.5	589.73
260 K, 4006.2 kPa, x2 = 0.75	571.62
260 K, 4007 kPa, x2 = 0.25	605.01
260 K, 4494.5 kPa, x2 = 0.75	572.27
260 K, 4511.7 kPa, x2 = 0.25	605.63
260 K, 4525.9 kPa, x2 = 0.5	590.39
260 K, 5017.4 kPa, x2 = 0.5	591.03
260 K, 5017.7 kPa, x2 = 0.25	606.24
260 K, 5022.8 kPa, x2 = 0.75	573.01
260 K, 5508.1 kPa, x2 = 0.75	573.69
260 K, 5512.4 kPa, x2 = 0.25	606.82
260 K, 5513.7 kPa, x2 = 0.5	591.66
260 K, 6015.4 kPa, x2 = 0.5	592.29
260 K, 6034.1 kPa, x2 = 0.25	607.43
260 K, 6049.2 kPa, x2 = 0.75	574.41
260 K, 6498.8 kPa, x2 = 0.75	575.04
260 K, 6503.8 kPa, x2 = 0.25	607.98
260 K, 6512.1 kPa, x2 = 0.5	592.9
260 K, 6943 kPa, x2 = 0.75	575.6
260 K, 6986.6 kPa, x2 = 0.5	593.49
260 K, 7011.2 kPa, x2 = 0.25	608.56
280 K, 524.1 kPa, x2 = 0.25	578.3
280 K, 533.2 kPa, x2 = 0.5	561.24
280 K, 994.1 kPa, x2 = 0.25	579.05
280 K, 996.1 kPa, x2 = 0.5	562.05
280 K, 1496.7 kPa, x2 = 0.25	579.83
280 K, 1503.2 kPa, x2 = 0.5	562.93
280 K, 1506.3 kPa, x2 = 0.75	543.19
280 K, 2004.1 kPa, x2 = 0.5	563.79
280 K, 2012.9 kPa, x2 = 0.75	544.18
280 K, 2015.5 kPa, x2 = 0.25	580.63
280 K, 2501.9 kPa, x2 = 0.5	564.62
280 K, 2503.9 kPa, x2 = 0.25	581.38
280 K, 2509.6 kPa, x2 = 0.75	545.11
280 K, 3000.3 kPa, x2 = 0.25	582.13
280 K, 3006.4 kPa, x2 = 0.5	565.46
280 K, 3018.4 kPa, x2 = 0.75	546.06
280 K, 3502.3 kPa, x2 = 0.25	582.88
280 K, 3504.2 kPa, x2 = 0.5	566.28
280 K, 3513.7 kPa, x2 = 0.75	546.96
280 K, 4015 kPa, x2 = 0.25	583.63
280 K, 4015 kPa, x2 = 0.75	547.86
280 K, 4016.7 kPa, x2 = 0.5	567.11
280 K, 4505.3 kPa, x2 = 0.25	584.35
280 K, 4508.2 kPa, x2 = 0.75	548.75
280 K, 4524.6 kPa, x2 = 0.5	567.93
280 K, 4984.9 kPa, x2 = 0.75	549.59
280 K, 4998.7 kPa, x2 = 0.5	568.69
280 K, 5019.7 kPa, x2 = 0.25	585.09
280 K, 5502.7 kPa, x2 = 0.25	585.78
280 K, 5506.3 kPa, x2 = 0.5	569.47
280 K, 5508.8 kPa, x2 = 0.75	550.5
280 K, 6005.9 kPa, x2 = 0.25	586.49
280 K, 6009.4 kPa, x2 = 0.5	570.25
280 K, 6043.7 kPa, x2 = 0.75	551.39
280 K, 6507.4 kPa, x2 = 0.5	571.01
280 K, 6517.1 kPa, x2 = 0.25	587.21
280 K, 6530.4 kPa, x2 = 0.75	552.22
280 K, 6972.3 kPa, x2 = 0.5	571.72
280 K, 7009.3 kPa, x2 = 0.25	587.89
280 K, 7012.2 kPa, x2 = 0.75	553.04
300 K, 990 kPa, x2 = 0.5	536.26
300 K, 1002.3 kPa, x2 = 0.75	514.75
300 K, 1005.5 kPa, x2 = 0.25	555.26
300 K, 1504.4 kPa, x2 = 0.25	556.28
300 K, 1504.7 kPa, x2 = 0.75	516.09
300 K, 1541.4 kPa, x2 = 0.5	537.52
300 K, 1950.9 kPa, x2 = 0.5	538.44
300 K, 1972.1 kPa, x2 = 0.75	517.33
300 K, 2002.5 kPa, x2 = 0.25	557.25
300 K, 2461.4 kPa, x2 = 0.5	539.56
300 K, 2497.9 kPa, x2 = 0.25	558.21
300 K, 2507.7 kPa, x2 = 0.75	518.69
300 K, 2946.2 kPa, x2 = 0.5	540.6
300 K, 3009.2 kPa, x2 = 0.75	519.95
300 K, 3012.5 kPa, x2 = 0.25	559.2
300 K, 3505.6 kPa, x2 = 0.5	541.79
300 K, 3507.9 kPa, x2 = 0.25	560.13
300 K, 3511.5 kPa, x2 = 0.75	521.18
300 K, 3998.7 kPa, x2 = 0.25	561.02
300 K, 4015.9 kPa, x2 = 0.5	542.85
300 K, 4017.5 kPa, x2 = 0.75	522.39
300 K, 4511.3 kPa, x2 = 0.25	561.97

mass density [kg/m3]
Conditions	240 K	260 K	280 K
x2 = 0.25	–	600.21	577.86
x2 = 0.5	606.37	584.58	560.91
x2 = 0.75	589.36	566.05	541.14
